US20160198705A1, “APPLICATION OF BISPHENOL SALT IN PREPARING DISINFECTANT USED FOR STERILIZATION OR FORMALDEHYDE REMOVAL” (NINGBO YUCHEN ENVIROCLEAN TECH CO., LTD., priority 2013, published 2016)

Experiments:
Staphylococcus aureus [1] = assay: Kirby-Bauer diffusion detection of sterilization capability (zone without bacterial growth around the filter paper); type: cell-based; settings: for sterilization effect without oxygen ventilation (diameter, mm): pH 10, no ventilation of oxygen
Staphylococcus aureus [2] = assay: as above; type: cell-based
Experimental: In catalyst screening, Staphylococcus aureus was used as the microorganisms, and a trypsin soybean agar was used as a culture medium. The material powder to be screened was prepared into a homogeneous mixture solution by pure water in a 5% weight/volume ratio (i.e., 5 g powder/100 mL water) (in rare cases of low solubility, firstly dissolved with a small amount of glycerol, then diluted with pure water), then immersed with a neutral precise filtration filter paper of 5 mm diameter for about 10 seconds, then placed into a Kirby-Bauer diffusion detection plate. A Kirby-Bauer diffusion detection plate was placed in a sealed glass cover, and the air was provided into the glass cover at a speed of about 10 liters per minute. The sterilizing capability of the catalyst was measured by the diameter of the zone without bacterial growth around the filter paper.
A variety of bisphenol salts were respectively prepared into a water solution with a mass concentration being 5%, and the pH was controlled to 10. The sterilization capability was still detected by Kirby-Bauer diffusion detection method in which Staphylococcus aureus was […] used as the microorganisms, respectively including two cases of no ventilation of oxygen and ventilation of oxygen. When oxygen was ventilated, the condition for oxygen ventilation was the same, the temperature was room temperature (25[…]) and 37[…].
The sterilization capability was detected by Kirby-Bauer diffusion detection method in which Staphylococcus aureus was still used as the microorganisms, and the condition for oxygen ventilation was identical, the temperature was room temperature (25[…]) and 37[…].
Ortho-bisphenol potassium was respectively prepared to form water solutions with a concentration of 5% and pH value of 6, 7, 8, 8.5, 9, 9.5, 10, 10.5, 11, 11.5, 12. The sterilization capability was detected by Kirby-Bauer diffusion detection method in which Staphylococcus aureus was still used as the microorganisms, the condition for oxygen ventilation was identical, the temperature was room temperature (25[…]) and 37[…].

[3] = 5% water solution, pH 10, oxygen ventilation
[4] = concentration 0.5%, pH 10, oxygen ventilation
[5] = concentration 1.0%, pH 10, oxygen ventilation
[6] = concentration 2.0%, pH 10, oxygen ventilation
[7] = concentration 5%, pH 10, oxygen ventilation
[8] = concentration 10%, pH 10, oxygen ventilation
[9] = concentration 15%, pH 10, oxygen ventilation
[10] = concentration 20%, pH 10, oxygen ventilation
[11] = pH 6, concentration 5%, oxygen ventilation
[12] = pH 7, concentration 5%, oxygen ventilation
[13] = pH 8, concentration 5%, oxygen ventilation
[14] = pH 8.5, concentration 5%, oxygen ventilation
[15] = pH 9, concentration 5%, oxygen ventilation
[16] = pH 9.5, concentration 5%, oxygen ventilation
[17] = pH 10.5, concentration 5%, oxygen ventilation
[18] = pH 11, concentration 5%, oxygen ventilation
[19] = pH 11.5, concentration 5%, oxygen ventilation
[20] = pH 12, concentration 5%, oxygen ventilation
[21] = pH 10, concentration 5%, oxygen ventilation
[22] = 5% weight/volume in pure water, air provided at about 10 liters per minute

## [K+].[K+].[O-]c1ccccc1-c1ccccc1[O-] [ortho-bisphenol potassium]
Staphylococcus aureus [1]; 5% water solution
  sterilization effect without oxygen ventilation (diameter, mm): 3 mm
Staphylococcus aureus [1]; [3]
  sterilization effect at 25[…] (diameter, mm): 18 mm
  sterilization effect at 37[…] (diameter, mm): 19 mm
Staphylococcus aureus [1]; [4]
  sterilization effect at 25[…] (diameter, mm): 8 mm
  sterilization effect at 37[…] (diameter, mm): 9 mm
Staphylococcus aureus [1]; [5]
  sterilization effect at 37[…] (diameter, mm): 10 mm
Staphylococcus aureus [1]; [6]
  sterilization effect at 25[…] (diameter, mm): 14 mm
  sterilization effect at 37[…] (diameter, mm): 16 mm
Staphylococcus aureus [1]; [7]
  sterilization effect at 25[…] (diameter, mm): 18 mm
Staphylococcus aureus [1]; [8]
  sterilization effect at 37[…] (diameter, mm): 20 mm
Staphylococcus aureus [1]; [9]
  sterilization effect at 25[…] (diameter, mm): 19 mm
  sterilization effect at 37[…] (diameter, mm): 18 mm
Staphylococcus aureus [1]; [10]
  sterilization effect at 25[…] (diameter, mm): 17 mm
  sterilization effect at 37[…] (diameter, mm): 19 mm
Staphylococcus aureus [1]; [11]
  sterilization effect at 37[…] (diameter, mm): 5 mm
Staphylococcus aureus [1]; [12]
  sterilization effect at 25[…] (diameter, mm): 5 mm
  sterilization effect at 37[…] (diameter, mm): 6 mm
Staphylococcus aureus [1]; [13]
  sterilization effect at 25[…] (diameter, mm): 8 mm
  sterilization effect at 37[…] (diameter, mm): 9 mm
Staphylococcus aureus [1]; [14]
  sterilization effect at 25[…] (diameter, mm): 13 mm
Staphylococcus aureus [1]; [15]
  sterilization effect at 37[…] (diameter, mm): 16 mm
Staphylococcus aureus [1]; [16]
  sterilization effect at 25[…] (diameter, mm): 16 mm
  sterilization effect at 37[…] (diameter, mm): 16 mm
Staphylococcus aureus [1]; [17]
  sterilization effect at 25[…] (diameter, mm): 18 mm
  sterilization effect at 37[…] (diameter, mm): 20 mm
Staphylococcus aureus [1]; [18]
  sterilization effect at 25[…] (diameter, mm): 18 mm
  sterilization effect at 37[…] (diameter, mm): 19 mm
Staphylococcus aureus [1]; [19]
  sterilization effect at 25[…] (diameter, mm): 20 mm
  sterilization effect at 37[…] (diameter, mm): 19 mm
Staphylococcus aureus [1]; [20]
  sterilization effect at 25[…] (diameter, mm): 20 mm
  sterilization effect at 37[…] (diameter, mm): 20 mm
Staphylococcus aureus [2]; [5]
  sterilization effect at 25[…] (diameter, mm): 11 mm
Staphylococcus aureus [2]; [7]
  sterilization effect at 37[…] (diameter, mm): 19 mm
Staphylococcus aureus [2]; [8]
  sterilization effect at 25[…] (diameter, mm): 20 mm
Staphylococcus aureus [2]; [11]
  sterilization effect at 25[…] (diameter, mm): 5 mm
Staphylococcus aureus [2]; [14]
  sterilization effect at 37[…] (diameter, mm): 14 mm
Staphylococcus aureus [2]; [15]
  sterilization effect at 25[…] (diameter, mm): 15 mm
Staphylococcus aureus [2]; [21]
  sterilization effect at 25[…] (diameter, mm): 19 mm
  sterilization effect at 37[…] (diameter, mm): 20 mm

## [Na+].[Na+].[O-]c1ccccc1-c1ccccc1[O-] [2,2′-ortho-bisphenol sodium]
Staphylococcus aureus [1]; [22]
  inhibition zone diameter: 15 mm

## [K+].[K+].[O-]c1cccc(Oc2cccc([O-])c2)c1
Staphylococcus aureus [1]; 5% water solution
  sterilization effect without oxygen ventilation (diameter, mm): 6 mm
Staphylococcus aureus [1]; [3]
  sterilization effect at 25[…] (diameter, mm): 16 mm
  sterilization effect at 37[…] (diameter, mm): 18 mm

## [K+].[K+].[O-]c1ccccc1-c1cc(Cl)ccc1[O-]
Staphylococcus aureus [1]; 5% water solution
  sterilization effect without oxygen ventilation (diameter, mm): 3 mm
Staphylococcus aureus [1]; [3]
  sterilization effect at 25[…] (diameter, mm): 19 mm
  sterilization effect at 37[…] (diameter, mm): 19 mm

## [K+].[K+].[O-]c1cccc(-c2cccc([O-])c2)c1
Staphylococcus aureus [1]; 5% water solution
  sterilization effect without oxygen ventilation (diameter, mm): 2 mm
Staphylococcus aureus [1]; [3]
  sterilization effect at 25[…] (diameter, mm): 20 mm
  sterilization effect at 37[…] (diameter, mm): 19 mm

## [Na+].[Na+].[O-]c1ccccc1Oc1ccccc1[O-]
Staphylococcus aureus [1]; 5% water solution
  sterilization effect without oxygen ventilation (diameter, mm): 5 mm
Staphylococcus aureus [1]; [3]
  sterilization effect at 25[…] (diameter, mm): 17 mm
  sterilization effect at 37[…] (diameter, mm): 19 mm

## O=S(=O)([O-])[O-].[Na+].[Na+] [sulfate sodium, reference compound]
Staphylococcus aureus [1]; [22]
  sterilization effect: essentially had no effect

## [Cl-].[Na+] [sodium chloride, reference compound]
Staphylococcus aureus [1]; [22]
  sterilization effect: essentially had no effect

## O=C(O)c1ccc(-c2ccccc2[O-])c([O-])c1.[K+].[K+]
Staphylococcus aureus [1]; 5% water solution
  sterilization effect without oxygen ventilation (diameter, mm): 2 mm
Staphylococcus aureus [1]; [3]
  sterilization effect at 25[…] (diameter, mm): 19 mm
  sterilization effect at 37[…] (diameter, mm): 19 mm
